US8410144B2, “Substituted indolo-pyridinone compounds” (ArQule, Inc., priority 2009, dated 2013)

Assays:
[1] = biological target: IGF-1R (Homo sapiens, UniProt P08069); assay: IGFR1 activity assay (ELISA); assay type: biochemical; conditions: read-out: IGF-1R, PCT INH (30 μM), ELISA
Method: The disclosed compounds were assayed for their ability to inhibit insulin-like growth factor receptor-1 (IGFR1). Nunc Maxisorb plates were coated with streptavidin by overnight incubation with 100 μL per well of 1 μg/ml Streptavidin in DPBS. Prior to the start of the experiment, the plates were washed with TBST (3×200 μL) and blocked for at least 1 hour by adding 150 μL of 5% BSA/TBST. The plates were washed with TBST (3×200 μL/well) and left to dry immediately before the capture step.
The disclosed test articles and controls (Staurosporine) were prepared using the following assay buffer at 3× desired final concentration (50 mM Tris-HCl, 0.02 mg/ml BSA, 10 mM MgCl2, 0.1 mM Na3VO4, 1 mM EGTA, 12.5 μM ATP, 0.01% NP-40, 1 mM DTT in 10% glycerol/water). 20 μL of the test compounds (or control), 20 μL IGF1R (0.33 ng/μL final concentration), and 20 μL of Pyk-2 (0.05 ng/μL final concentration) were rapidly added to the reaction plate. The plate was incubated at room temperature for one hour.
50 μL was transferred from the reaction plate to the streptavidin coated plate. The capture plate was incubated at room temperature for 30 minutes, then washed with TBST three times. 100 μL/well of Cell Signaling anti-phospho tyrosine was added to the capture plate at a dilution of 1:3000 in 2% BSA/TBST. The plate was incubated for one hour at room temperature then washed 6× with TBST. 100 μL/well of alkaline phosphatase tagged goat anti mouse antibody was added to the capture plate at a dilution of 1:4000 in 2% BSA/TBST. The plate was incubated for one hour at room temperature then washed with TBST six times.
The fluorescent readout is initiated by the addition of 100 μL/well of Attophos reagent (6 mg/10 mL). The reading is done on the Perkin Elmer Envision system.

[2] = system: KATO III; assay: MTS assay, KATO III cells; assay type: cell-based; conditions: Homo sapiens, 72 hours, read-out: KATO III, MTS cell kill % inhibition
Method: (§1) Cells were maintained at 37° C., 5% CO2 in DMEM media supplemented with 1% fetal bovine serum, penicillin/streptomycin and fungizone (Invitrogen). Cells were seeded into 96-well tissue culture plates at 3000 per well and cultured at 37° C. for 18 hours. Test compounds were dissolved and diluted to 300× in DMSO then diluted 1:40 in DMEM. Cells were incubated with test compounds for 72 hours followed by incubation with tetrazolium compound (3-(4,5-dimethylthiazol-2-yl)-5-(3-carboxymethoxyphenyl)-2-(4-sulfophenyl)-2H-tetrazolium, inner salt; MTS) and the electron coupling reagent, phenazine methosulfate (PMS) for 4 hours. […] The ability of compounds to inhibit cell growth in this assay is correlated with the reduction of dehydrogenase enzyme activity found in metabolically active cells. The measurement of the absorbance of the formazan was assessed using an ENVISION™ (Perkin Elmer) microplate reader at 492 nm. The calculated IC50 value is the concentration of the test compound that causes a 50% decrease in the absorbance.

[3] = system: NCI-H1299; assay: MTS assay, NCI-H1299 cells; assay type: cell-based; conditions: Homo sapiens, 72 hours, read-out: NCI-H1299, MTS cell kill % inhibition
Method: as §1

[4] = system: DLD-1; assay: MTS assay, DLD-1 cells; assay type: cell-based; conditions: Homo sapiens, 72 hours, read-out: DLD-1, MTS cell kill % inhibition
Method: as §1

[5] = system: MDA-MB-231; assay: MTS assay, MDA-MB-231 cells; assay type: cell-based; conditions: Homo sapiens, 72 hours, read-out: MDA-MB-231, MTS cell kill % inhibition
Method: as §1

Chain of IGF-1R (P08069 31-1367): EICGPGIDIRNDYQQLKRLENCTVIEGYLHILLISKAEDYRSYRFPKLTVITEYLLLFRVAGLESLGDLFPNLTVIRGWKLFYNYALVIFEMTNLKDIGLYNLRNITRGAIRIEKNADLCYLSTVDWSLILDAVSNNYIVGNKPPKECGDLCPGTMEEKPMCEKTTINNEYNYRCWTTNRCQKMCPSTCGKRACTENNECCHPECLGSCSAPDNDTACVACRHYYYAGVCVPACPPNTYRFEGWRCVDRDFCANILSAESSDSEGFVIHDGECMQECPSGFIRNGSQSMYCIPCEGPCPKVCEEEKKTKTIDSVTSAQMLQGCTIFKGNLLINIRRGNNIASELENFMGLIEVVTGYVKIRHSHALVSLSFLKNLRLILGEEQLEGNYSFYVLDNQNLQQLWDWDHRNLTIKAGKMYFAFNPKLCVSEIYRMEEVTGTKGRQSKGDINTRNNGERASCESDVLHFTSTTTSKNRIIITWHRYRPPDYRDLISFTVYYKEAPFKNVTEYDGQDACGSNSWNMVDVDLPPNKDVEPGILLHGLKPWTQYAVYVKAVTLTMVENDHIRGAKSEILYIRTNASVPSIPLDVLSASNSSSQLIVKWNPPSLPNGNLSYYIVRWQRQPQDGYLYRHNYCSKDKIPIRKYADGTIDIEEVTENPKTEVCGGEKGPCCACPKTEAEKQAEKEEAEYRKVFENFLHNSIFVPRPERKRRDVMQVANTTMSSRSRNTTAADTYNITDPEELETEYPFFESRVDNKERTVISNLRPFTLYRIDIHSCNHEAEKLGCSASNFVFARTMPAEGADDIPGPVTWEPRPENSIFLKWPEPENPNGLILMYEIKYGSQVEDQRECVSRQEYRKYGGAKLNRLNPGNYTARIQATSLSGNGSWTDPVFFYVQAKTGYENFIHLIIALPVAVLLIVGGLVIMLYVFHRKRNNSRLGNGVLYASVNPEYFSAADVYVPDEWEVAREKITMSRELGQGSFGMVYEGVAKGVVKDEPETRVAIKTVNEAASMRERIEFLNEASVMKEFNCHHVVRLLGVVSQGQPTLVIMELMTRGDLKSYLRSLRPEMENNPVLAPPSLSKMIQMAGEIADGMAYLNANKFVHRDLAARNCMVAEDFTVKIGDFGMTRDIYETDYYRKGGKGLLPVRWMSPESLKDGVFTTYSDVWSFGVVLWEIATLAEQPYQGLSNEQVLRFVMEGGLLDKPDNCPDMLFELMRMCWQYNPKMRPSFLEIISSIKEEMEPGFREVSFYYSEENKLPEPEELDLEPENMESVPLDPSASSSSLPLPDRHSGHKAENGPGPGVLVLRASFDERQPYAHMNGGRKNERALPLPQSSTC

SMILES | melting point [°C] | inhibition at 30 µM [1] [%] | inhibition at 10 µM [2] [%] | inhibition at 10 µM [3] [%] | inhibition at 10 µM [4] [%] | inhibition at 10 µM [5] [%]
O=C(NC1CCNCC1)c1ccc2[nH]c(-c3ccc[nH]c3=O)c(-c3ccccc3)c2c1 [Compound 3, 2-(2-oxo-1,2-dihydropyridin-3-yl)-3-phenyl-N-piperidin-4-yl-1H-indole-5-carboxamide] | 233 to 236 | 50 to 79 | – | – | – | –
O=C(NCC1CCNCC1)c1ccc2[nH]c(-c3ccc[nH]c3=O)c(-c3ccccc3)c2c1 [Compound 4, 2-(2-oxo-1,2-dihydropyridin-3-yl)-3-phenyl-N-(piperidin-4-ylmethyl)-1H-indole-5-carboxamide] | 189 to 191 | 80 to 100 | – | – | – | –
O=C(NCCCn1ccnc1)c1ccc2[nH]c(-c3ccc[nH]c3=O)c(-c3ccccc3)c2c1 [Compound 6, N-[3-(1H-imidazol-1-yl)propyl]-2-(2-oxo-1,2-dihydropyridin-3-yl)-3-phenyl-1H-indole-5-carboxamide] | 153 to 157 | – | 80 to 100 | 80 to 100 | 50 to 79 | 50 to 79
O=C(NCCCN1CCOCC1)c1cc2c3c(c1)c(-c1ccccc1)c(-c1ccc[nH]c1=O)n3CCC2 [Compound 7, N-(3-morpholin-4-ylpropyl)-2-(2-oxo-1,2-dihydropyridin-3-yl)-1-phenyl-5,6-dihydro-4H-pyrrolo[3,2,1-ij]quinoline-8-carboxamide] | 151 to 158 | – | < 50 | – | < 50 | < 50
O=C(c1ccc2[nH]c(-c3ccc[nH]c3=O)c(-c3ccccc3)c2c1)N1CCc2ccccc2C1 [Compound 28, 3-[5-(3,4-dihydroisoquinolin-2(1H)-ylcarbonyl)-3-phenyl-1H-indol-2-yl]pyridin-2(1H)-one] | 171 to 177 | 80 to 100 | 80 to 100 | 80 to 100 | 80 to 100 | –
O=C(c1ccc2[nH]c(-c3ccc[nH]c3=O)c(-c3ccc(-c4ccccc4)cc3)c2c1)N1CCc2ccccc2C1 [Compound 47, 3-[3-biphenyl-4-yl-5-(3,4-dihydroisoquinolin-2(1H)-ylcarbonyl)-1H-indol-2-yl]pyridin-2(1H)-one] | 101 to 110 | – | 50 to 79 | < 50 | 50 to 79 | < 50
COc1ccc(NC(=O)c2ccc3[nH]c(-c4ccc[nH]c4=O)c(-c4ccc(-c5ccccc5)cc4)c3c2)cc1 [Compound 48, 3-biphenyl-4-yl-N-(4-methoxyphenyl)-2-(2-oxo-1,2-dihydropyridin-3-yl)-1H-indole-5-carboxamide] | 154 to 162 | < 50 | 50 to 79 | 50 to 79 | 50 to 79 | –
O=C(NCCCN1CCOCC1)c1ccc2[nH]c(-c3ccc[nH]c3=O)cc2c1 [Compound 55, N-(3-morpholin-4-ylpropyl)-2-(2-oxo-1,2-dihydropyridin-3-yl)-1H-indole-5-carboxamide] | 130 to 132 | 80 to 100 | < 50 | – | – | < 50
O=C(NCCCN1CCOCC1)c1ccc2[nH]c(-c3ccc[nH]c3=O)c(-c3ccc4ncccc4c3)c2c1 [Compound 83, N-(3-morpholin-4-ylpropyl)-2-(2-oxo-1,2-dihydropyridin-3-yl)-3-quinolin-6-yl-1H-indole-5-carboxamide] | – | 80 to 100 | 80 to 100 | 80 to 100 | 80 to 100 | 80 to 100
O=c1[nH]cccc1-c1[nH]c2ccccc2c1C1CCN(Cc2ccccc2)CC1 [Compound 85, 3-[3-(1-benzylpiperidin-4-yl)-1H-indol-2-yl]pyridin-2(1H)-one] | 135 to 139 | – | < 50 | – | < 50 | < 50
O=c1[nH]cccc1-c1[nH]c2ccccc2c1C1CCN(S(=O)(=O)c2ccccc2)CC1 [Compound 86, 3-{3-[1-(phenylsulfonyl)piperidin-4-yl]-1H-indol-2-yl}pyridin-2(1H)-one] | 215 to 217 | – | < 50 | < 50 | < 50 | < 50
O=C(c1ccccc1)N1CCC(c2c(-c3ccc[nH]c3=O)[nH]c3ccccc23)CC1 [Compound 87, 3-[3-(1-benzoylpiperidin-4-yl)-1H-indol-2-yl]pyridin-2(1H)-one] | 294 to 296 | – | < 50 | < 50 | < 50 | 80 to 100

More lines, main results first:

melting point [°C] | inhibition at 30 µM [1] [%] | SMILES | inhibition at 10 µM [2] [%] | inhibition at 10 µM [3] [%] | inhibition at 10 µM [4] [%] | inhibition at 10 µM [5] [%]
89 to 92 | – | CC(C)c1cccc(-c2c(-c3ccc[nH]c3=O)[nH]c3ccc(C(=O)NCCCN4CCOCC4)cc23)c1 [Compound 71, 3-(3-isopropylphenyl)-N-(3-morpholin-4-ylpropyl)-2-(2-oxo-1,2-dihydropyridin-3-yl)-1H-indole-5-carboxamide] | 80 to 100 | 80 to 100 | 80 to 100 | 80 to 100
– | 80 to 100 | O=C(NCCCN1CCOCC1)c1ccc2[nH]c(-c3ccc[nH]c3=O)c(-c3csc4ccccc34)c2c1 [Compound 74, 3-(1-benzothien3-yl)-N-(3-morpholin-4-ylpropyl)-2-(2-oxo-1,2-dihydropyridin-3-yl)-1H-indole-5-carboxamide] | 80 to 100 | 50 to 79 | 50 to 79 | 50 to 79
125 to 130 | – | O=C(NCCCN1CCOCC1)c1ccc2[nH]c(-c3ccc[nH]c3=O)c(-c3cc(Cl)cc(Cl)c3)c2c1 [Compound 75, 3-(3,5-dichlorophenyl)-N-(3-morpholin-4-ylpropyl)-2-(2-oxo-1,2-dihydropyridin-3-yl)-1H-indole-5-carboxamide] | 80 to 100 | 80 to 100 | 80 to 100 | 80 to 100
– | < 50 | O=C(NCCCN1CCOCC1)c1ccc2[nH]c(-c3ccc[nH]c3=O)c(-c3ccc(F)c(Cl)c3)c2c1 [Compound 76, 3-(3-chloro-4-fluorophenyl)-N-(3-morpholin-4-ylpropyl)-2-(2-oxo-1,2-dihydropyridin-3-yl)-1H-indole-5-carboxamide] | 80 to 100 | 80 to 100 | 80 to 100 | 80 to 100
– | 80 to 100 | O=C(NCCCN1CCOCC1)c1ccc2[nH]c(-c3ccc[nH]c3=O)c(-c3ccc(F)cc3F)c2c1 [Compound 77, 3-(2,4-difluorophenyl)-N-(3-morpholin-4-ylpropyl)-2-(2-oxo-1,2-dihydropyridin-3-yl)-1H-indole-5-carboxamide] | < 50 | < 50 | < 50 | < 50
– | 80 to 100 | COc1ccc(-c2c(-c3ccc[nH]c3=O)[nH]c3ccc(C(=O)NCCCN4CCOCC4)cc23)cc1 [Compound 80, 3-(4-methoxyphenyl)-N-(3-morpholin-4-ylpropyl)-2-(2-oxo-1,2-dihydropyridin-3-yl)-1H-indole-5-carboxamide] | 80 to 100 | 50 to 79 | 50 to 79 | 50 to 79
– | 80 to 100 | O=C(NCCCN1CCOCC1)c1ccc2[nH]c(-c3ccc[nH]c3=O)c(-c3cccc(F)c3)c2c1 [Compound 82, 3-(3-fluorophenyl)-N-(3-morpholin-4-ylpropyl)-2-(2-oxo-1,2-dihydropyridin-3-yl)-1H-indole-5-carboxamide] | 80 to 100 | 80 to 100 | 50 to 79 | < 50
